In patent publication US5169844A, “4-substituted piperidinecarboxylic acid esters: inhibition of cholesterol absorption” (priority 1991, dated 1992):
Read-outs that look alike come from different tables or passages of the source.

Assays:
[1] = target: T1, cholesterol esterase (EC 3.1.1.13) from bovine pancreas (CEH) (Bos taurus, UniProt P30122); test: CEH inhibition (cholesteryl ester formation from cholesterol and oleic acid by buffered cholesterol esterase); assay type: biochemical
T1 construct: purchased Sigma Company, St. Louis, Mo., U.S.A. C-1892; host or cells: bovine pancreas
T1 sequence (P30122 19-597): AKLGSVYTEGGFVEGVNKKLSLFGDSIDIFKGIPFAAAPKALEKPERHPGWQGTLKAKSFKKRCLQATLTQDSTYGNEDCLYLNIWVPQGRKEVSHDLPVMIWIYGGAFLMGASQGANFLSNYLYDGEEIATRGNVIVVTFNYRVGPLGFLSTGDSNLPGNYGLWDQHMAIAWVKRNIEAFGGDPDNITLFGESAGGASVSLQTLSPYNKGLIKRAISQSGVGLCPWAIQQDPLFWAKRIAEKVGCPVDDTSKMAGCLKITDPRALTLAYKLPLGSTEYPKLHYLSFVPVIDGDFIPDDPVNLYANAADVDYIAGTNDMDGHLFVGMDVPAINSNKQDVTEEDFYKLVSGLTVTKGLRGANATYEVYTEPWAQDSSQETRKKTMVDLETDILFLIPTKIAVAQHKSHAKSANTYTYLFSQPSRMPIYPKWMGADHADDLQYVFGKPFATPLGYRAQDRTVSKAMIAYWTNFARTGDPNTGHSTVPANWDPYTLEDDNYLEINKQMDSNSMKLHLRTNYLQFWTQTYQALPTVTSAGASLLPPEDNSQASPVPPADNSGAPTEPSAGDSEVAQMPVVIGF
Experimental: 2. The ability of the compounds of this invention to inhibit the formation of cholesteryl esters and thereby interfere with and prevent assimilation of cholesterol into the lymphatic system and ultimately the blood stream was established by incubating the compounds at 37° C. with a mixture of cholesterol and oleic acid in the presence of buffered cholesterol esterase [(EC 3.1.1.13) Sigma Company, St. Louis, Mo., U.S.A., No. C-1892, from bovine pancreas] and measuring the amount of ester formed, according to the procedure of Field, J. of Lipid Research, 25 389 (1984).

[2] = test system: acyl-coenzyme A: cholesterol acyltransferase (ACAT); test: ACAT inhibition (intracellular cholesterol esterification, procedure of Ross et al.); assay type: cell-based; settings: for IC50: read-out: ACAT IC50
Excerpt: 1. The ability of the compounds of this invention to inhibit acyl-coenzyme A: cholesterol acyltransferase was established by initially showing that they inhibited intracellular cholesterol esterification by subjecting them to the standard experimental test procedure of Ross et al., J. Biol. Chem. 259, 815 (1984).

[3] = test system: Absorption of 14C-cholesterol in normal rat; test: In vivo cholesterol absorption, oral [4-14C] cholesterol, normal rats; settings: read-out: Effect on Absorption of 14C-Chol., % Decrease
Experimental: The in vivo cholesterol absorption studies were conducted in normal rats by oral administration of the compound being tested in propylene glycol and olive oil followed by oral administration of [4-^14 C] cholesterol in propylene glycol and olive oil, otherwise following the procedure of Cayen et al., J. Lipid Res. 20 162 (1979). The serum radioactivity was measured at six hours after dosing. The results of this study are reported in the following table, where available, as percent decrease compared to control and in terms of the effective dose (ED50) inhibiting fifty-percent of the absorption of the control animals.

[4] = 37° C., bovine pancreas enzyme, read-out: CEH IC50
[5] = normal rat, oral, 6 hr, 10 mg/kg, serum radioactivity vs control
[6] = normal rat, oral, 6 hr, serum radioactivity vs control

SMILES | ACAT % inhibition at 25 μM [2] [%] | IC50 [2] [µM] | IC50 [1, 4] [µM] | inhibition in vivo at 10 mg/kg [3, 5] [%] | other results
CCCCNC(=O)OC1CCN(C(=O)Oc2ccc(Oc3ccccc3)cc2)CC1 [Example 2, 4-[[(Butylamino)carbonyl]oxy]-1-piperidinecarboxylic acid 4-phenoxyphenyl ester] | 96 | 2 | – | – | IC50 [1]: 2.3 µM
CCCCCCNC(=O)OC1CCN(C(=O)Oc2ccc(Oc3ccccc3)cc2)CC1 [Example 3, 4-[[(Hexylamino)carbonyl]oxy]-1-piperidinecarboxylic acid 4-phenoxyphenyl ester] | 94 | 0.64 | – | – | IC50 [1]: 9.8 µM; inhibition in vivo at 10 mg/kg ([3]; Rattus norvegicus, po, 6 h): 85%
CCCCCCCCNC(=O)OC1CCN(C(=O)Oc2ccc(Oc3ccccc3)cc2)CC1 [Example 4, 4-[[(Octylamino)carbonyl]oxy]-1-piperidinecarboxylic acid 4-phenoxyphenyl ester] | 94 | 0.82 | > 100 | – | inhibition in vivo at 100 mg/kg ([3]; normal rat, oral, 6 hr, 100 mg/kg, serum radioactivity vs control): 92%
O=C(NC1CCCCC1)OC1CCN(C(=O)Oc2ccc(Oc3ccccc3)cc2)CC1 [Example 5, 4-[[(Cyclohexylamino)carbonyl]oxy]-1-piperidinecarboxylic acid 4-phenoxyphenyl ester] | 92 | 1.68 | 9.5 | 89 | –
CCCCCCCCCCCCNC(=O)OC1CCN(C(=O)Oc2ccc(Oc3ccccc3)cc2)CC1 [Example 6, 4-[[(Dodecylamino)carbonyl]oxy]-1-piperidinecarboxylic acid 4-phenoxyphenylester] | 88 | 0.51 | 16 | 57 | –
CCCCCCCCCCCCCCCCCCNC(=O)OC1CCN(C(=O)Oc2ccc(Oc3ccccc3)cc2)CC1 [Example 7, 4-[[(Octadecylamino)carbonyl]oxy]-1-piperidinecarboxylic acid 4-phenoxyphenyl ester] | – | – | > 100 | – | inhibition in vivo at 25 mg/kg [3, 6]: 28%
CC(C)CCCC(C)NC(=O)OC1CCN(C(=O)Oc2ccc(Oc3ccccc3)cc2)CC1 (stereo not shown) [Example 8, 4-[[[(1,5-Dimethylhexyl)amino]carbonyl]oxy]-1-piperidinecarboxylic acid 4-phenoxyphenyl ester] | – | – | 13 | – | –
CC1CCN(C(=O)OC2CCN(C(=O)Oc3ccc(Oc4ccccc4)cc3)CC2)CC1 [Example 9] | – | – | 1.1 | – | –
CCCCCCCN(Cc1ccc(CC(C)(C)C)cc1)C(=O)OC1CCN(C(=O)Oc2ccc(Oc3ccccc3)cc2)CC1 [Example 10, 4-[[[[[4-(2,2-Dimethylpropyl)phenyl]methyl]heptylamino]carbonyl]oxy]-1-piperidinecarboxylic acid 4-phenoxyphenyl ester] | 84 | 3.3 | > 100 | – | –
CNC(=O)OC1CCN(C(=O)Oc2ccc(Oc3ccccc3)cc2)CC1 [Example 11, 4-[[(Methylamino)carbonyl]oxy]-1-piperidinecarboxylic acid 4-phenoxyphenyl ester] | – | – | – | – | IC50 [1]: 2.1 µM
CCN(CC)C(=O)OC1CCN(C(=O)Oc2ccc(Oc3ccccc3)cc2)CC1 [Example 12, 4-[[(Diethylamino)carbonyl]oxy]-1-piperidinecarboxylic acid 4-phenoxyphenylester] | 93 | 1.37 | – | – | IC50 [1]: 11.4 µM
O=C(NCCCCc1ccccc1)OC1CCN(C(=O)Oc2ccc(Oc3ccccc3)cc2)CC1 [Example 13, 4-[[[(4-Phenylbutyl)amino]carbonyl]oxy]-1-piperidinecarboxylic acid 4-phenoxyphenyl ester] | 96 | 0.23 | 5 | 41 | –
CCCCCCCC/C=C\CCCCCCCCNC(=O)OC1CCN(C(=O)Oc2ccc(Oc3ccccc3)cc2)CC1 [Example 14] | – | – | 43 | – | inhibition in vivo at 25 mg/kg [3, 6]: 21%
O=C(Oc1ccc(Oc2ccccc2)cc1)N1CCC(OC(=O)N2CCSCC2)CC1 [Example 15, 4-Thiomorpholinecarboxylic acid 1-[(4-phenxoyphenoxy)carbonyl]-4-piperidinyl ester] | – | – | 79 | – | –
O=C(Oc1ccc(Oc2ccccc2)cc1)N1CCC(OC(=O)N2CCC(c3ccccc3)CC2)CC1 [Example 16, 4-Phenyl-1-piperidinecarboxylic acid 1-[(4-phenoxyphenoxy)carbonyl]-4-piperidinyl ester] | 91 | 0.51 | 12 | 48 | –
O=C(NCC1CCCCC1)OC1CCN(C(=O)Oc2ccc(Oc3ccccc3)cc2)CC1 [Example 17, 4-[[[(Cyclohexylmethyl)amino]carbonyl]oxy]-1-piperidinecarboxylic acid 4-phenoxyphenyl ester] | 97 | 0.49 | 19 | – | inhibition in vivo at 3 mg/kg ([3]; normal rat, oral, 6 hr, 3 mg/kg, serum radioactivity vs control): 68%
CCCCCCNC(=O)OC1CCN(C(=O)Oc2ccc(Oc3ccc(C)cc3)cc2)CC1 [Example 18, 4-[[(Hexylamino)carbonyl]oxy]-1-piperidinecarboxylic acid 4-(4-methylphenoxy)phenyl ester] | – | – | 2 | 25 | –
CCCCCCNC(=O)OC1CCN(C(=O)Oc2ccc(Oc3ccc(OC)cc3)cc2)CC1 [Example 19, 4-[[(Hexylamino)carbonyl]oxy]-1-piperidinecarboxylic acid 4-(4-methoxyphenoxy)phenyl ester] | – | – | 2.8 | 29 | –
